In US20100022491A1, “4-HYDROXY-2-OXO-2,3-DIHYDRO-1,3-BENZOTHIAZOL-7YL COMPOUNDS FOR MODULATION OF B2-ADRENORECEPTOR ACTIVITY” (ASTRAZENECA AB, priority 2006, published 2010):
Counter-ions that a name gives are not always drawn.

Columns and labels:
Adrenergic β2 = target: T1, Adrenergic β2 (Homo sapiens, UniProt P07550); experiment: Adrenergic β2 mediated cAMP production in H292 cells; type: cell-based; conditions: for EC50 / β2 pEC50: H292 cells, cAMP by AlphaScreen, 60 minutes at room temperature, rolipram 300 μM; for EC50: read-out: β2 pEC50 (converted); for β2 Int Act: Intrinsic Activity as a fraction relative to the maximum activity determined for formoterol
T1 construct: Adherent H292 cells were removed from tissue culture flasks; endogenous in cells; host or cells: H292 cells
Method: Adrenergic β2 mediated cAMP production
H292 cells were grown in 225 cm2 flasks incubator at 37° C., 5% CO2 in RPMI medium containing, 10% (v/v) FBS (foetal bovine serum) and 2 mM L-glutamine.
Adherent H292 cells were removed from tissue culture flasks by treatment with Accutase™ cell detachment solution for 15 minutes. Flasks were incubated for 15 minutes in a humidified incubator at 37° C., 5% CO2. Detached cells were re-suspended in RPMI media (containing 10% (v/v) FBS and 2 mM L-glutamine) at 0.05×10^6 cells per mL. 5000 cells in 100 μL were added to each well of a tissue-culture-treated 96-well plate and the cells incubated overnight in a humidified incubator at 37° C., 5% CO2. The culture media was removed and cells were washed twice with 100 μL assay buffer and replaced with 50 μL assay buffer (HBSS solution containing 10 mM HEPES pH7.4 and 5 mM glucose). Cells were rested at room temperature for 20 minutes after which time 25 μL of rolipram (1.2 mM made up in assay buffer containing 2.4% (v/v) dimethylsulphoxide) was added. Cells were incubated with rolipram for 10 minutes after which time test compounds were added and the cells were incubated for 60 minutes at room temperature. The final rolipram concentration in the assay was 300 μM and final vehicle concentration was 1.6% (v/v) dimethylsulphoxide. The reaction was stopped by removing supernatants, washing once with 100 μL assay buffer and replacing with 50 μL lysis buffer. The cell monolayer was frozen at −80° C. for 30 minutes (or overnight).
The concentration of cAMP (cyclic adenosine monophosphate) in the cell lysate was determined using AlphaScreen™ methodology. The frozen cell plate was thawed for 20 minutes on a plate shaker then 10 μL of the cell lysate was transferred to a 96-well white plate. 40 μL of mixed AlphaScreen™ detection beads pre-incubated with biotinylated cAMP, was added to each well and the plate incubated at room temperature for 10 hours in the dark. The AlphaScreen™ signal was measured using an EnVision spectrophotometer (Perkin-Elmer Inc.) with the recommended manufacturer's settings. cAMP concentrations were determined by reference to a calibration curve determined in the same experiment using standard cAMP concentrations. Concentration response curves for agonists were constructed and data was fitted to a four parameter logistic equation to determine both the pEC50 and Intrinsic Activity. Intrinsic Activity was expressed as a fraction relative to the maximum activity determined for formoterol in each experiment.

[1] = target: T2, recombinant human Dopamine Subtype D2s receptors (Homo sapiens, UniProt P14416); experiment: Dopamine D2 selectivity binding assay ([3H]-spiperone); conditions: inhibition of [3H]-spiperone (0.16 nM) binding; for IC50: read-out: D2 bind pIC50 (converted)
T2 construct: purchased Perkin Elmer
Method: (§1) Membranes containing recombinant human Dopamine Subtype D2s receptors were obtained from Perkin Elmer. These were diluted in Assay Buffer (50 mM HEPES, 1 mM EDTA, 120 mM NaCl, 0.1% gelatin, pH 7.4) to provide a final concentration of membranes that gave a clear window between maximum and minimum specific binding.
(§2) Assays were performed in U-bottomed 96-well polypropylene plates. 30 μL [^3H]-spiperone (0.16 nM final concentration) and 30 μL of test compound (10× final concentration) were added to each test well. For each assay plate 8 replicates were obtained for [^3H]-spiperone binding in the presence of 30 μL vehicle (10% (v/v) DMSO in Assay Buffer; defining maximum binding) or 30 μL Haloperidol (10 μM final concentration; defining non-specific binding (NSB)). Membranes were then added to achieve a final volume of 300 μL. The plates were incubated for 2 hours at room temperature and then filtered onto PEI coated GF/B filter plates, pre-soaked for 1 hour in Assay Buffer, using a 96-well plate Tomtec cell harvester. Five washes with 250 μL wash buffer (50 mM HEPES, 1 mM EDTA, 120 mM NaCl, pH 7.4) were performed at 4° C. to remove unbound radioactivity. The plates were dried then sealed from underneath using Packard plate sealers and MicroScint-O (50 μL) was added to each well. The plates were sealed (TopSeal A) and filter-bound radioactivity was measured with a scintillation counter (TopCount, Packard BioScience) using a 3-minute counting protocol.
(§3) Total specific binding (B0) was determined by subtracting the mean NSB from the mean maximum binding. NSB values were also subtracted from values from all other wells. […] Data was fitted to a four parameter logistic equation to determine the compound potency, which was expressed as pIC50 (negative log molar concentration inducing 50% inhibition of [^3H]-spiperone binding).

[2] = target: T3, recombinant human adrenergic beta 1 receptors (Homo sapiens, UniProt P08588); experiment: Adrenergic β1 selectivity binding assay ([125I]-Iodocyanopindolol); conditions: inhibition of [125I]-Iodocyanopindolol (0.036 nM) binding; for IC50: read-out: β1 bind p IC50 (converted)
T3 construct: purchased Euroscreen
Method: as §1, with “adrenergic beta 1” for “Dopamine Subtype D2s”, “Euroscreen.” for “Perkin Elmer.”
as §2, with “10” for “30”, “[^125I]-Iodocyanopindolol (0.036” for “[^3H]-spiperone (0.16”, “[^125I]-Iodocyanopindolol” for “[^3H]-spiperone”, “Propranolol” for “Haloperidol”, “100” for “300”
as §3, with “[^125I]-Iodocyanopindolol” for “[^3H]-spiperone”

T3 sequence (P08588 whole entry): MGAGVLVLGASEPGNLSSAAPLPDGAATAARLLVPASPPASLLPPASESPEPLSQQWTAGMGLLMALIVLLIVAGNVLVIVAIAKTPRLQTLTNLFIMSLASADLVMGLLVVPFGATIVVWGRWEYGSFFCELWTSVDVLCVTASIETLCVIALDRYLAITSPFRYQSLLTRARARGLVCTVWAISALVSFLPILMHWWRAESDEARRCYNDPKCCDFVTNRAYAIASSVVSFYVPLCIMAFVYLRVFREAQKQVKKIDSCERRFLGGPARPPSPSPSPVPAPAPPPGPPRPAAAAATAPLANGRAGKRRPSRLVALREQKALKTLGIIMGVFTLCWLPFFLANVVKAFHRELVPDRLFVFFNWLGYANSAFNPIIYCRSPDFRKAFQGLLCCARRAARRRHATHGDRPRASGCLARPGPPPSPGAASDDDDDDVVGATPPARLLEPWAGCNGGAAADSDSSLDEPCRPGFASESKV
T2 sequence (P14416 1-414 isoform P14416-2): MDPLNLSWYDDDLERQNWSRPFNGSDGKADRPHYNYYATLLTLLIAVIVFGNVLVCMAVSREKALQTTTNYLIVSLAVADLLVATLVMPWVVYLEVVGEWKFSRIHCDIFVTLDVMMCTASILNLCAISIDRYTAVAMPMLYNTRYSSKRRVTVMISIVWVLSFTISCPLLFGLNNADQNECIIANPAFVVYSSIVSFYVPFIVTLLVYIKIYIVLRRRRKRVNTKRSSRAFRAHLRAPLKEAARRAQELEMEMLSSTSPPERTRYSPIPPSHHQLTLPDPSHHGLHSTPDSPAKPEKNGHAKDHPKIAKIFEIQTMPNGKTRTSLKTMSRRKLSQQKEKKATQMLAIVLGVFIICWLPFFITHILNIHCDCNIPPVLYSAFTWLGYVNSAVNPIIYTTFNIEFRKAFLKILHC
T1 sequence (P07550 whole entry): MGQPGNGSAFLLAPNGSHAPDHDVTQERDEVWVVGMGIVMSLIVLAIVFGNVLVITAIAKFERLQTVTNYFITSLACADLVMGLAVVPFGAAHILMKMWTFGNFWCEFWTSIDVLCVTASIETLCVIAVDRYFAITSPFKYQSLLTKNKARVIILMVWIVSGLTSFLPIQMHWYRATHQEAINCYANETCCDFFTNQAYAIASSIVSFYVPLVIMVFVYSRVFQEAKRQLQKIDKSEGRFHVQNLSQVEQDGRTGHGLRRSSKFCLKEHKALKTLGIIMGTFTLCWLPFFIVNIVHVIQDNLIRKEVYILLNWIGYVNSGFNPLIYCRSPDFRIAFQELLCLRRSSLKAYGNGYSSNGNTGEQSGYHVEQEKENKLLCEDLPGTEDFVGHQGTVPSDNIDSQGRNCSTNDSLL

Row | EC50 (Adrenergic β2) [nM] | β2 Int Act (Adrenergic β2) | IC50 [1] [nM] | IC50 [2] [nM] | SMILES | β2 pEC50 (Adrenergic β2) | D2 bind pIC50 [1] | β1 bind p IC50 [2]
1 | 3.98 | 0.97 | 251 | 3160 | O=C(CCNCCc1ccccc1Cl)N(CCNCCc1ccc(O)c2[nH]c(=O)sc12)C1CCCC1 [Example 29, N^3-[2-(2-Chlorophenyl)ethyl]-N-cyclopentyl-N-(2-{[2-(4-hydroxy-2-oxo-2,3-dihydro-1,3-benzothiazol-7-yl)ethyl]amino}ethyl)-β-alaninamide bis-trifluoroacetic acid salt] |  |  | 
2 | 3.98 | 0.91 | 631 | 7940 | O=C(CCNCCc1ccc(F)cc1)N(CCNCCc1ccc(O)c2[nH]c(=O)sc12)C1CCCCC1 [Example 16, N-Cyclohexyl-N^3-[2-(4-fluorophenyl)ethyl]-N-(2-{[2-(4-hydroxy-2-oxo-2,3-dihydro-1,3-benzothiazol-7-yl)ethyl]amino}ethyl)-β-alaninamide bis-trifluoroacetic acid salt] |  |  | 
3 | 7.94 | 1.05 | 2510 | 5010 | Cc1cccc(CCNCCC(=O)N(CCNCCc2ccc(O)c3[nH]c(=O)sc23)C2CCOCC2)c1 [Example 25, N-(2-{[2-(4-Hydroxy-2-oxo-2,3-dihydro-1,3-benzothiazol-7-yl)ethyl]amino}ethyl)-N^3-[2-(3-methylphenyl)ethyl]-N-(tetrahydro-2H-pyran-4-yl)-β-alaninamide bis-trifluoroacetic acid salt] |  |  | 
4 | 6.31 | 0.81 | 31.6 | 1260 | O=C(NCc1ccccc1)c1ccc(CCNCCC(=O)N(CCNCCc2ccc(O)c3[nH]c(=O)sc23)C2CCCCCC2)cc1 [Example 100, N-Benzyl-4-[2-({3-[cycloheptyl(2-{[2-(4-hydroxy-2-oxo-2,3-dihydro-1,3-benzothiazol-7-yl)ethyl]amino}ethyl)amino]-3-oxopropyl}amino)ethyl]benzamide bis-trifluoroacetic acid salt] |  |  | 
5 | 20 | 0.76 | 794 | 2000 | O=C(CCNCCc1cccc(F)c1)N(CCNCCc1ccc(O)c2[nH]c(=O)sc12)CC12CC3CC(CC(C3)C1)C2 [Example 60, N^1-(1-Adamantylmethyl)-N^3-[2-(3-fluorophenyl)ethyl]-N^1-(2-{[2-(4-hydroxy-2-oxo-2,3-dihydro-1,3-benzothiazol-7-yl)ethyl]amino}ethyl)-β-alaninamide bis-trifluoroacetic acid salt] |  |  | 
6 | 20 | 0.70 | 158 | 1000 | CC(C)(CO)CN(CCNCCc1ccc(O)c2[nH]c(=O)sc12)C(=O)CCNCCc1cccc(Cl)c1Cl [Example 67, N^3-[2-(2,3-Dichlorophenyl)ethyl]-N^1-(3-hydroxy-2,2-dimethylpropyl)-N^1-(2-{[2-(4-hydroxy-2-oxo-2,3-dihydro-1,3-benzothiazol-7-yl)ethyl]amino}ethyl)-β-alaninamide bis-trifluoroacetic acid salt] |  |  | 
7 | 2.51 | 0.87 | 50.1 | 3160 | O=C(CCNCCc1cccc(Cl)c1)N(CCNCCc1ccc(O)c2[nH]c(=O)sc12)C1CCCCC1 [Example 12, N^3-[2-(3-Chlorophenyl)ethyl]-N-cyclohexyl-N-(2-{[2-(4-hydroxy-2-oxo-2,3-dihydro-1,3-benzothiazol-7-yl)ethyl]amino}ethyl)-β-alaninamide bis-trifluoroacetic acid salt] |  |  | 
8 | 3.98 | 0.84 | 158 | 5010 | O=C(CCNCCc1cc(F)cc(F)c1)N(CCNCCc1ccc(O)c2[nH]c(=O)sc12)C1CCCCCC1 [Example 58, N^1-Cycloheptyl-N^3-[2-(3,5-difluorophenyl)ethyl]-N^1-(2-{[2-(4-hydroxy-2-oxo-2,3-dihydro-1,3-benzothiazol-7-yl)ethyl]amino}ethyl)-β-alaninamide bis-trifluoroacetic acid salt] |  |  | 
9 |  |  |  |  | O=C(CCNCCc1cccc(F)c1)N(CCNCCc1ccc(O)c2[nH]c(=O)sc12)C1CCCCC1 [Example 15, N-Cyclohexyl-N^3-[2-(3-fluorophenyl)ethyl]-N-(2-{[2-(4-hydroxy-2-oxo-2,3-dihydro-1,3-benzothiazol-7-yl)ethyl]amino}ethyl)-β-alaninamide bis-trifluoroacetic acid salt] | 8.6 | 6.4 | 5.2
10 |  |  |  |  | O=C(CCNCCc1cccc(F)c1F)N(CCNCCc1ccc(O)c2[nH]c(=O)sc12)C1CCCCC1 [Example 93, N-Cyclohexyl-N^3-[2-(2,3-difluorophenyl)ethyl]-N-(2-{[2-(4-hydroxy-2-oxo-2,3-dihydro-1,3-benzothiazol-7-yl)ethyl]amino}ethyl)-β-alaninamide dihydrobromide salt] | 8.6 | 6.5 | 5.2
11 | 10 | 0.68 | 50.1 | 3980 | COc1ccc(CCNCCC(=O)N(CCNCCc2ccc(O)c3[nH]c(=O)sc23)C2CCCCC2)cc1 [Example 68, N^1-Cyclohexyl-N^1-(2-{[2-(4-hydroxy-2-oxo-2,3-dihydro-1,3-benzothiazol-7-yl)ethyl]amino}ethyl)-N^3-[2-(4-methoxyphenyl)ethyl]-β-alaninamide bis-trifluoroacetic acid salt] |  |  | 
